Data published in PubChem BioAssay (NCI).
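In this assay, cells in 96-well plates receive the compound at five concentrations for 48 hours. Endpoints are linearly interpolated between the surrounding concentrations. GI50 is the concentration that inhibits growth by half. The concentration for full growth arrest is given as TGI.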

Experiments:
Test in all cases: growth of human tumour cells (NCI), 48 h
[1] = tested on: KM12 colon
[2] = tested on: LOX IMVI melanoma
[3] = tested on: HCT-116 colon
[4] = tested on: RPMI-8226 leukemia
[5] = tested on: HOP-62 NSCLC
[6] = tested on: IGROV1 ovarian
[7] = tested on: 786-0 renal
[8] = tested on: OVCAR-8 ovarian
[9] = tested on: HOP-92 NSCLC
[10] = tested on: BT-549 breast

Structure (SMILES) | TGI [1] [µM] | TGI [2] [µM] | TGI [3] [µM] | TGI [4] [µM] | TGI [5] [µM] | TGI [6] [µM] | TGI [7] [µM] | TGI [8] [µM] | TGI [9] [µM] | GI50 [10] [µM] | TGI [10] [µM] | GI50 [1] [µM] | GI50 [2] [µM] | GI50 [3] [µM] | GI50 [5] [µM] | GI50 [6] [µM] | GI50 [7] [µM] | GI50 [8] [µM] | GI50 [4] [µM] | GI50 [9] [µM]
CCOC(=O)C1=C(NC)OCC1=O | > 100 | > 100 | > 100 | > 100 | > 100 | > 100 | > 100 | > 100 | > 100 |  |  |  |  |  |  |  |  |  |  | 
[O]=[V]([OH])([OH])[OH] | > 100 | > 100 | > 100 |  | > 100 | > 100 | > 100 | > 100 |  | > 100 | > 100 | > 100 | > 100 | > 100 | > 100 | > 100 | > 100 | > 100 |  | 
COc1cc(/C=C/c2cc(/C=C/c3ccc(O)c(OC)c3)n(C(=O)c3ccccc3Br)n2)ccc1O | > 100 |  | > 100 | 6 | 16.3 | > 100 | > 100 | 12.4 | 9.65 | 2.12 | 7.75 | 2.22 |  | 3.06 | 3.41 | 4.11 | 3.19 | 2.75 | 2.05 | 3.82
CNCc1ccc(-c2cc(-c3nc(-c4ccc(S(=O)(=O)C(C)C)cc4)cnc3N)on2)cc1 | 12.6 |  | 2.3 | 8.45 | 22.6 | 10.5 | 11.3 | 5.94 | 30.6 | 2.04 | 30.4 | 1.87 |  | 1.08 | 4.56 | 1.2 | 0.362 | 2.31 | 1.31 | 13.3
O=C1N[C@@H]2CCCC[C@@H]2C12CCCCC2 | > 100 | > 100 | > 100 | > 100 | > 100 | > 100 | > 100 | > 100 |  |  |  |  |  |  |  |  |  |  |  | 
COc1cc(/C=C2\NC(=O)C(Cc3cc(OC)c(OC)c(C)c3OC)N(C(C)=O)C2=O)c(OC)c(C)c1OC (stereo unspecified) | > 100 | > 100 | > 100 | > 100 | > 100 | > 100 | > 100 | > 100 | > 100 |  |  |  |  |  |  |  |  |  |  | 
O=C(NCCc1ccccc1)C1C(=O)C(=O)N(CCc2ccccc2)C1=O (stereo unspecified) | > 100 | > 100 | > 100 | > 100 |  | > 100 | > 100 |  | > 100 |  |  |  |  |  |  |  |  |  |  | 
Cc1ccccc1C(CCCO)C(=O)O (stereo unspecified) | > 100 | > 100 | > 100 | > 100 | > 100 | > 100 | > 100 | > 100 | > 100 |  |  |  |  |  |  |  |  |  |  | 
CCCC(=O)CC(C)C(=O)C(=O)NC12CC3CC(CC(C3)C1)C2 (stereo unspecified) | > 100 | > 100 |  | > 100 | > 100 |  | > 100 | > 100 | > 100 |  |  |  |  |  |  |  |  |  |  | 
